# Laboratory results taken from ChEMBL document CHEMBL1128211, “3D-quantitative structure-activity relationships of human immunodeficiency virus type-1 proteinase inhibitors: comparative molecular field analysis of 2-heterosubstituted statine derivatives-implications for the design of novel inhibitors” (J Med Chem, 1995).
# Target: Human immunodeficiency virus type 1 protease (Human immunodeficiency virus 1, UniProt Q72874)
# Test: Inhibitory activity was determined against HIV type 1 protease
structure (smiles),measurement,value
CC(C)[C@H](NC(=O)OCc1ccccc1)C(=O)N[C@@H](Cc1ccccc1)[C@@H](O)[C@@H](NCc1ccccc1)C(=O)N[C@H](C(=O)OCc1nc2ccc([N+](=O)[O-])cc2[nH]1)C(C)C,Ki,30.2 nM
Cc1cn(CCO)c(=O)n(CCOC(=O)[C@@H](NC(=O)[C@H](NCc2ccccc2)[C@H](O)[C@H](Cc2ccccc2)NC(=O)[C@@H](NC(=O)OCc2ccccc2)C(C)C)C(C)C)c1=O,Ki,550 nM
CC(C)[C@H](NC(=O)[C@H](NCc1ccccc1)[C@H](O)[C@H](Cc1ccccc1)NC(=O)[C@@H](NC(=O)[C@@H](O)Cc1ccccc1)C(C)(C)C)C(=O)NCc1ccccc1,Ki,15.1 nM
CC(C)[C@H](NC(=O)[C@H](NCc1ccccc1)[C@H](O)[C@H](Cc1ccccc1)NC(=O)OC(C)(C)C)C(=O)NCc1ccccc1,Ki,158 nM
CCOc1ccc(CN[C@@H](C(=O)N[C@H]2c3ccccc3CC2O)[C@H](O)[C@H](Cc2ccccc2)NC(=O)OC(C)(C)C)cc1 (stereo partly specified),Ki,91.2 nM
CCOc1ccc(CN[C@@H](C(=O)N[C@H]2c3ccccc3CC2O)[C@H](O)[C@H](Cc2ccccc2)NC(=O)[C@@H](NC(=O)OCc2ccccc2)C(C)(C)C)cc1 (stereo partly specified),Ki,10 nM
COc1ccc(CN[C@@H](C(=O)N[C@H](C(=O)NCCn2cnc3ccccc32)C(C)C)[C@H](O)[C@H](Cc2ccccc2)NC(=O)[C@@H](NC(=O)OCc2ccccc2)C(C)C)cc1,Ki,19.1 nM
COc1ccc(CN[C@@H](C(=O)N[C@H](C(=O)NCCN2CCOCC2)C(C)C)[C@H](O)[C@H](Cc2ccccc2)NC(=O)[C@@H](NC(=O)OCc2ccccc2)C(C)C)cc1,Ki,24 nM
CC(C)[C@H](NC(=O)[C@H](NCc1ccccc1)[C@H](O)[C@H](Cc1ccccc1)NC(=O)[C@@H](NC(=O)c1nc2c(F)cccc2[nH]1)C(C)(C)C)C(=O)NCc1ccccc1,Ki,26.9 nM
COc1ccc(CN[C@@H](C(=O)N[C@H](C(=O)NCc2nc3cc[nH]cc-3n2)C(C)C)[C@H](O)[C@H](Cc2ccccc2)NC(=O)OC(C)(C)C)cc1,Ki,15.1 nM
CC(C)[C@H](NC(=O)OCc1ccccc1)C(=O)N[C@@H](Cc1ccccc1)[C@@H](O)[C@@H](NCc1ccc(Cl)cc1)C(=O)N[C@H](C(=O)NCc1ccccn1)C(C)C,Ki,6.46 nM
CC(C)(C)[C@H](NC(=O)OCc1ccccc1)C(=O)N[C@@H](Cc1ccccc1)[C@@H](O)[C@@H](NCc1ccc(OCCN2CCOCC2)cc1)C(=O)NCc1ccccc1,Ki,69.2 nM
CC(C)[C@H](NC(=O)[C@H](NCc1ccccc1)[C@H](O)[C@H](Cc1ccccc1)NC(=O)[C@@H](NC(=O)CCc1ccc(O)cc1)C(C)(C)C)C(=O)NCc1ccccc1,Ki,12.9 nM
COc1ccc(CN[C@@H](C(=O)N[C@H]2c3ccccc3CC2O)[C@H](O)[C@H](Cc2ccccc2)NC(=O)OC(C)(C)C)cc1 (stereo partly specified),Ki,148 nM
CC(C)[C@H](NC(=O)[C@H](NCc1ccccc1)[C@H](O)[C@H](Cc1ccccc1)NC(=O)[C@@H](NC(=O)N(C)c1ccccc1)C(C)(C)C)C(=O)NCc1ccccc1,Ki,646 nM
CC(C)(C)OC(=O)N[C@@H](Cc1ccccc1)[C@@H](O)[C@@H](NCc1ccc(CNC(=O)OCc2ccccc2)cc1)C(=O)N[C@H]1c2ccccc2CC1O (stereo partly specified),Ki,19.1 nM
CCOC(=O)[C@H](NCc1ccc(CNC(=O)c2ccccc2)cc1)[C@H](O)[C@H](Cc1ccccc1)NC(=O)[C@@H](NC(=O)OCc1ccccc1)C(C)C,Ki,933 nM
CC(C)(C)OC(=O)N[C@@H](Cc1ccccc1)[C@@H](O)[C@@H](NCc1ccc(CNC(=O)CCc2nc3ccccc3[nH]2)cc1)C(=O)N[C@H]1c2ccccc2CC1O (stereo partly specified),Ki,40.7 nM
COc1ccc(CN[C@@H](C(=O)N[C@H](C(=O)NCc2ccc(OC)cc2OC)C(C)C)[C@H](O)[C@H](Cc2ccccc2)NC(=O)[C@@H](NC(=O)OCc2ccccc2)C(C)C)cc1,Ki,4.17 nM
CC(C)[C@H](NC(=O)OCc1ccccc1)C(=O)N[C@@H](Cc1ccccc1)[C@@H](O)[C@@H](NCc1ccccc1)C(=O)N[C@H](C(=O)NCc1ccccc1)C(C)(C)C,Ki,20 nM
CCOC(=O)[C@H](NCc1ccc(CN)cc1)[C@H](O)[C@H](Cc1ccccc1)NC(=O)[C@@H](NC(=O)OCc1ccccc1)C(C)C,Ki,2690 nM
COc1ccc(CN[C@@H](C(=O)N[C@H](C(=O)Nc2ccc3c(c2)OCCO3)C(C)C)[C@H](O)[C@H](Cc2ccccc2)NC(=O)[C@@H](NC(=O)OCc2ccccc2)C(C)C)cc1,Ki,15.1 nM
CC(C)[C@H](NC(=O)OCc1ccccn1)C(=O)N[C@@H](Cc1ccccc1)[C@@H](O)[C@@H](NCc1ccccc1)C(=O)N[C@H](C(=O)NCc1ccccn1)C(C)C,Ki,26.9 nM
CC(C)[C@H](NC(=O)OCc1ccccc1)C(=O)N[C@@H](Cc1ccccc1)[C@@H](O)[C@@H](NCc1ccccc1)C(=O)N[C@H](C(=O)NCc1cccnc1)C(C)C,Ki,13.5 nM
CC(C)[C@H](NC(=O)OCc1ccccc1)C(=O)N[C@@H](Cc1ccccc1)[C@@H](O)[C@@H](NC[C@H](O)c1ccccc1)C(=O)N[C@H](C(=O)NCc1nc2ccccc2[nH]1)C(C)C,Ki,28.2 nM
CC(C)[C@H](N)C(=O)C[C@@H](Cc1ccccc1)[C@@H](O)[C@H]1CCc2ccc(cc2)OCCOCCOCCCOCCNC(=O)[C@H](C(C)C)CC1=O,Ki,7.59 nM
